Test results reported in patent US20240350495A1, “[6R]-MTHF IN B6 ENHANCED 5-FU BASED CHEMOTHERAPY OF CARCINOMA” (Isofol Medical AB, priority 2023, published 2024).
“Also recorded” adds a separate entry of the source. Each block holds one compound with its values, some of them ahead of it.

Legend:
[1] = kidneys; cited from earlier work
[2] = test system: solid tumors; assay: Phase I/IIa study ISO-CC-005 of arfolitixorin with 5-FU; assay type: in vivo, human; conditions: between 8 and 16 weeks after initiating treatment
Procedure: Arfolitixorin has been in development for a number of years and has been studied in several clinical studies.
The completion of the study was announced in January 2020. In total, 105 patients were included in the study. […] These patients had been treated with the “doublet” regimens comprising 120 mg/m^2 arfolitixorin and 5-fluorouracil (5-FU) with either irinotecan or oxaliplatin (ARFIRI/ARFOX). Out of the 31 patients, 17 were treated with an ARFOX regimen.

[3] = [6R]-MTHF levels after arfolitixorin versus comparable leucovorin treatment; assay type: in vivo
Text: This dependency on cellular activation provides a hurdle for reaching sufficient levels of the active [6R]-MTHF. […] Secondly, the enzymatic activation is genetically regulated^16,18, and is therefore associated with variability between individuals and conditions. Arfolitoxirin is believed to be efficacious in a larger proportion of patients with less inter- and intra-individual variability. These differences may potentially turn out to be of significant importance for increased clinical efficacy in 5-FU based cancer treatment.

[4] = Stability of the drug substance salt; assay type: physicochemical; conditions: compared with very unstable [6R]-5,10-MTHF
Text: Arfolitixorin (former Modufolin®) is a folate-based biomodulator developed by applicant to improve the outcome of a range of antimetabolite treatments used within oncology. One of the therapeutic areas of specific interest included in the development program of arfolitixorin is as biomodulator of 5-fluorouracil (5-FU) activity in standard treatment regime for advanced, metastatic CRC, such as Stage IV. A stable lyophilizate formulation of the naturally occurring diastereoisomeric folate [6R]-5,10-MTHF has successfully been made from the drug substance arfolitixorin hemisulfate. […] As mentioned in the background section of the present application, [6R]-5,10-methylenetetrahydrofolate, abbreviated herein as [6R]-5,10-MTHF, needs to be metabolically formed when using the widely used folate-based drugs leucovorin and levoleucovorin.

[5] = in vitro; cited from earlier work
[6] = air, sunlight; cited from earlier work
[7] = cited from earlier work
[8] = test system: human colon carcinoma HCT116 cell line; conditions: supplemented with high concentrations of PLP and leucovorin; cited from earlier work
[9] = test system: human colon carcinoma HT29 cell line; conditions: supplemented with high concentrations of PLP and leucovorin; cited from earlier work
[10] = test system: murine leukemia L1210 cell line; conditions: supplemented with high concentrations of PLP and leucovorin; cited from earlier work

Structure (SMILES): Nc1nc2c(c(=O)[nH]1)N(C=O)[C@H](CNc1ccc(C(=O)N[C@@H](CCC(=O)O)C(=O)O)cc1)CN2 [d-LV]
excretion [1]: slowly excreted by the kidneys

[6R]-MTHF levels relative to comparable treatment with leucovorin [3]: 3-4 times
Structure (SMILES): Nc1nc2c(c(=O)[nH]1)N1CN(c3ccc(C(=O)N[C@@H](CCC(=O)O)C(=O)O)cc3)C[C@H]1CN2 [Arfolitixorin, [6R]-5,10-methylenetetrahydrofolate]
progression of solid tumors [2]: No statistically significant progression

stability of the salt [4]: unexpectedly stable salt
Structure (SMILES): Nc1nc2c(c(=O)[nH]1)N1CN(c3ccc(C(=O)N[C@@H](CCC(=O)O)C(=O)O)cc3)C[C@H]1CN2.Nc1nc2c(c(=O)[nH]1)N1CN(c3ccc(C(=O)N[C@@H](CCC(=O)O)C(=O)O)cc3)C[C@H]1CN2.O=S(=O)(O)O [arfolitixorin hemisulfate]

Structure (SMILES): Nc1nc(=O)c2c([nH]1)NC[C@H](CNc1ccc(C(=O)N[C@@H](CCC(=O)O)C(=O)O)cc1)N2C=O [l-LV]
conversion to methyl-tetrahydrofolate [5]: rapidly converted to the biologically available methyl-tetrahydrofolate form

Structure (SMILES): Cc1ncc(CO)c(CO)c1O.Cl [Pyridoxine hydrochloride]
stability [6]: stable in air and is slowly affected by sunlight
solubility in water [7]: One gram dissolves in 5 ml of water

Structure (SMILES): O=c1[nH]cc(F)c(=O)[nH]1 [5-FU, 5-fluorouracil]
cytotoxic activity of 5-FU [8]: potentiated; also recorded: strongly potentiated
cytotoxic activity of 5-FU [9]: potentiated; also recorded: strongly potentiated
cytotoxic activity of 5-FU [10]: potentiated; also recorded: strongly potentiated
